# Experiments:
# Type in all cases: functional
# A498 = assay: Cytotoxicity against Homo sapiens (human) A498 cells assessed as growth inhibition at 10 uM after 48 hr by coulter counter analysis; conditions: A498, 48 h, read-out: GI
# NCI-H23 = assay: Cytotoxicity against Homo sapiens (human) NCI-H23 cells assessed as growth inhibition at 10 uM after 48 hr by coulter counter analysis; conditions: NCI-H23, 48 h, read-out: GI
# MDA-MB-231 = assay: Cytotoxicity against Homo sapiens (human) MDA-MB-231 cells assessed as growth inhibition at 10 uM after 48 hr by coulter counter analysis; conditions: MDA-MB-231, 48 h, read-out: GI
# HCT-116 = assay: Cytotoxicity against Homo sapiens (human) HCT116 cells assessed as growth inhibition at 10 uM after 48 hr by coulter counter analysis; conditions: HCT-116, 48 h, read-out: GI
# UO-31 = assay: Cytotoxicity against Homo sapiens (human) UO31 cells assessed as growth inhibition at 10 uM after 48 hr by coulter counter analysis; conditions: UO-31, 48 h, read-out: GI
# RXF 393 = assay: Cytotoxicity against Homo sapiens (human) RXF393 cells assessed as growth inhibition at 10 uM after 48 hr by coulter counter analysis; conditions: RXF 393, 48 h, read-out: GI
# Hs-578T = assay: Cytotoxicity against Homo sapiens (human) Hs578T cells assessed as growth inhibition at 10 uM after 48 hr by coulter counter analysis; conditions: read-out: GI
# NCI-H226 = assay: Cytotoxicity against Homo sapiens (human) NCI-H226 cells assessed as growth inhibition at 10 uM after 48 hr by coulter counter analysis; conditions: NCI-H226, 48 h, read-out: GI
# SK-MEL-2 = assay: Cytotoxicity against Homo sapiens (human) SK-MEL-2 cells assessed as growth inhibition at 10 uM after 48 hr by coulter counter analysis; conditions: SK-MEL-2, 48 h, read-out: GI
# LOX IMVI = assay: Cytotoxicity against Homo sapiens (human) LOXIMVI cells assessed as growth inhibition at 10 uM after 48 hr by coulter counter analysis; conditions: read-out: GI
# SF-268 = assay: Cytotoxicity against Homo sapiens (human) SF268 cells assessed as growth inhibition at 10 uM after 48 hr by coulter counter analysis; conditions: SF-268, 48 h, read-out: GI
# OVCAR-4 = assay: Cytotoxicity against Homo sapiens (human) OVCAR4 cells assessed as growth inhibition at 10 uM after 48 hr by coulter counter analysis; conditions: OVCAR-4, 48 h, read-out: GI
# SK-OV-3 = assay: Cytotoxicity against Homo sapiens (human) SKOV3 cells assessed as growth inhibition at 10 uM after 48 hr by coulter counter analysis; conditions: SK-OV-3, 48 h, read-out: GI
# M14 = assay: Cytotoxicity against Homo sapiens (human) M14 cells assessed as growth inhibition at 10 uM after 48 hr by coulter counter analysis; conditions: M14, 48 h, read-out: GI
# [1] = Cytotoxicity against Homo sapiens (human) NCI-ADR-RES cells assessed as growth inhibition at 10 uM after 48 hr by coulter counter analysis; conditions: read-out: GI
# MOLT-4 = assay: Cytotoxicity against Homo sapiens (human) MOLT4 cells assessed as growth inhibition at 10 uM after 48 hr by coulter counter analysis; conditions: MOLT-4, 48 h, read-out: GI
# KM12 = assay: Cytotoxicity against Homo sapiens (human) KM12 cells assessed as growth inhibition at 10 uM after 48 hr by coulter counter analysis; conditions: KM12, 48 h, read-out: GI
# SK-MEL-28 = assay: Cytotoxicity against Homo sapiens (human) SK-MEL-28 cells assessed as growth inhibition at 10 uM after 48 hr by coulter counter analysis; conditions: SK-MEL-28, 48 h, read-out: GI
# Malme-3M = assay: Cytotoxicity against Homo sapiens (human) MALME-3M cells assessed as growth inhibition at 10 uM after 48 hr by coulter counter analysis; conditions: read-out: GI
# IGROV-1 = assay: Cytotoxicity against Homo sapiens (human) IGROV1 cells assessed as growth inhibition at 10 uM after 48 hr by coulter counter analysis; conditions: IGROV-1, 48 h, read-out: GI
# CAKI-1 = assay: Cytotoxicity against Homo sapiens (human) Caki1 cells assessed as growth inhibition at 10 uM after 48 hr by coulter counter analysis; conditions: CAKI-1, 48 h, read-out: GI
# SR = assay: Cytotoxicity against Homo sapiens (human) SR cells assessed as growth inhibition at 10 uM after 48 hr by coulter counter analysis; conditions: read-out: GI
# TK-10 = assay: Cytotoxicity against Homo sapiens (human) TK10 cells assessed as growth inhibition at 10 uM after 48 hr by coulter counter analysis; conditions: TK-10, 48 h, read-out: GI
# SNB-19 = assay: Cytotoxicity against Homo sapiens (human) SNB19 cells assessed as growth inhibition at 10 uM after 48 hr by coulter counter analysis; conditions: SNB-19, 48 h, read-out: GI
# HOP-92 = assay: Cytotoxicity against Homo sapiens (human) HOP92 cells assessed as growth inhibition at 10 uM after 48 hr by coulter counter analysis; conditions: HOP-92, 48 h, read-out: GI
# SN12C = assay: Cytotoxicity against Homo sapiens (human) SN12C cells assessed as growth inhibition at 10 uM after 48 hr by coulter counter analysis; conditions: read-out: GI
# ACHN = assay: Cytotoxicity against Homo sapiens (human) ACHN cells assessed as growth inhibition at 10 uM after 48 hr by coulter counter analysis; conditions: read-out: GI
# HCC 2998 = assay: Cytotoxicity against Homo sapiens (human) HCC2998 cells assessed as growth inhibition at 10 uM after 48 hr by coulter counter analysis; conditions: HCC 2998, 48 h, read-out: GI
# SW-620 = assay: Cytotoxicity against Homo sapiens (human) SW620 cells assessed as growth inhibition at 10 uM after 48 hr by coulter counter analysis; conditions: SW-620, 48 h, read-out: GI
# HT-29 = assay: Cytotoxicity against Homo sapiens (human) HT-29 cells assessed as growth inhibition at 10 uM after 48 hr by coulter counter analysis; conditions: HT-29, 48 h, read-out: GI
# DU-145 = assay: Cytotoxicity against Homo sapiens (human) DU145 cells assessed as growth inhibition at 10 uM after 48 hr by coulter counter analysis; conditions: DU-145, 48 h, read-out: GI
# A549 = assay: Cytotoxicity against Homo sapiens (human) A549 cells assessed as growth inhibition at 10 uM after 48 hr by coulter counter analysis; conditions: A549, 48 h, read-out: GI
# UACC-257 = assay: Cytotoxicity against Homo sapiens (human) UACC257 cells assessed as growth inhibition at 10 uM after 48 hr by coulter counter analysis; conditions: UACC-257, 48 h, read-out: GI
# EKVX = assay: Cytotoxicity against Homo sapiens (human) EKVX cells assessed as growth inhibition at 10 uM after 48 hr by coulter counter analysis; conditions: read-out: GI
# OVCAR-8 = assay: Cytotoxicity against Homo sapiens (human) OVCAR8 cells assessed as growth inhibition at 10 uM after 48 hr by coulter counter analysis; conditions: OVCAR-8, 48 h, read-out: GI
SMILES,inhibition of growth at 10 µM (A498) [%],inhibition of growth at 10 µM (NCI-H23) [%],inhibition of growth at 10 µM (MDA-MB-231) [%],inhibition of growth at 10 µM (HCT-116) [%],inhibition of growth at 10 µM (UO-31) [%],inhibition of growth at 10 µM (RXF 393) [%],inhibition of growth at 10 µM (Hs-578T) [%],inhibition of growth at 10 µM (NCI-H226) [%],inhibition of growth at 10 µM (SK-MEL-2) [%],inhibition of growth at 10 µM (LOX IMVI) [%],inhibition of growth at 10 µM (SF-268) [%],inhibition of growth at 10 µM (OVCAR-4) [%],inhibition of growth at 10 µM (SK-OV-3) [%],inhibition of growth at 10 µM (M14) [%],inhibition of growth at 10 µM [1] [%],inhibition of growth at 10 µM (MOLT-4) [%],inhibition of growth at 10 µM (KM12) [%],inhibition of growth at 10 µM (SK-MEL-28) [%],inhibition of growth at 10 µM (Malme-3M) [%],inhibition of growth at 10 µM (IGROV-1) [%],also measured
O=c1[nH]nnc2c1C(c1ccc(Cl)cc1)C1=C(CCCC1)N2 (stereo not given),28.3,10.4,< 10,< 10,43.4,< 10,< 10,10.3,< 10,< 10,< 10,< 10,< 10,< 10,< 10,< 10,< 10,< 10,< 10,< 10,inhibition of growth at 10 µM (CAKI-1): 16.1%; inhibition of growth at 10 µM (SR): < 10%; inhibition of growth at 10 µM (TK-10): < 10%; inhibition of growth at 10 µM (SNB-19): < 10%; inhibition of growth at 10 µM (HOP-92): < 10%; inhibition of growth at 10 µM (SN12C): < 10%; inhibition of growth at 10 µM (ACHN): < 10%; inhibition of growth at 10 µM (HCC 2998): < 10%; inhibition of growth at 10 µM (SW-620): < 10%; inhibition of growth at 10 µM (HT-29): < 10%; inhibition of growth at 10 µM (DU-145): < 10%; inhibition of growth at 10 µM (A549): < 10%; inhibition of growth at 10 µM (UACC-257): < 10%; inhibition of growth at 10 µM (EKVX): 10.9%; inhibition of growth at 10 µM (OVCAR-8): < 10%
COc1ccc(C2C3=C(CCCC3)Nc3nn[nH]c(=O)c32)cc1OC (stereo not given),13.2,< 10,< 10,< 10,48.6,14.4,< 10,15.9,< 10,< 10,< 10,< 10,< 10,< 10,< 10,< 10,< 10,< 10,< 10,< 10,inhibition of growth at 10 µM (CAKI-1): 23.4%; inhibition of growth at 10 µM (SR): < 10%; inhibition of growth at 10 µM (TK-10): < 10%; inhibition of growth at 10 µM (SNB-19): 10.7%; inhibition of growth at 10 µM (HOP-92): 13.3%; inhibition of growth at 10 µM (SN12C): 10.8%; inhibition of growth at 10 µM (ACHN): 16%; inhibition of growth at 10 µM (HCC 2998): < 10%; inhibition of growth at 10 µM (SW-620): < 10%; inhibition of growth at 10 µM (HT-29): < 10%; inhibition of growth at 10 µM (DU-145): < 10%; inhibition of growth at 10 µM (A549): < 10%; inhibition of growth at 10 µM (UACC-257): < 10%; inhibition of growth at 10 µM (EKVX): < 10%; inhibition of growth at 10 µM (OVCAR-8): < 10%
COc1ccc(C2C3=C(CCCC3)Nc3[nH]c(=S)nc(NC(N)=S)c32)cc1OC (stereo not given),< 10,15.3,17.4,< 10,43.5,14.3,17.7,18.6,12.6,16.1,< 10,< 10,18.6,< 10,11.7,< 10,21.3,< 10,10.9,< 10,inhibition of growth at 10 µM (CAKI-1): 10%; inhibition of growth at 10 µM (SR): 40.6%; inhibition of growth at 10 µM (TK-10): < 10%; inhibition of growth at 10 µM (SNB-19): 10.4%; inhibition of growth at 10 µM (HOP-92): 25.8%; inhibition of growth at 10 µM (SN12C): < 10%; inhibition of growth at 10 µM (ACHN): 11.4%; inhibition of growth at 10 µM (HCC 2998): < 10%; inhibition of growth at 10 µM (SW-620): < 10%; inhibition of growth at 10 µM (HT-29): < 10%; inhibition of growth at 10 µM (DU-145): < 10%; inhibition of growth at 10 µM (A549): < 10%; inhibition of growth at 10 µM (UACC-257): < 10%; inhibition of growth at 10 µM (EKVX): < 10%; inhibition of growth at 10 µM (OVCAR-8): < 10%
